Columns and labels:
[1] = molecular target: T1, hM3Dq in iCre-positive neurons (Homo sapiens, UniProt P20309, A239G/Y149C); assay: Infrared thermography and behaviour of Qrfp-iCre; Rosa26^dreaddm3 mice after IP CNO; format: in vivo
T1 construct: mCherry (C); expressed in transfected cells; host or cells: iCre-expressing neurons of Qrfp-iCre; Rosa26^dreaddm3 mice (CAG-hM3Dq-mCherry at the Rosa26 locus, in vivo)
Description: For thermographic analysis, the mice were inserted into an experiment cage (25×15×10 cm) and monitored using an infrared thermal imaging camera (InfReC R500 EX; Nippon Avionics) placed 30 cm above the cage floor. To clearly detect the surface temperature, the back hair was removed using hair clippers one day prior to the start of the experiment. Thermograms of DREADD and optogenetic experiments were collected at 0.5 Hz and 1 Hz, respectively, and analyzed using the InfReC Analyzer NS9500 Professional software (Nippon Avionics). The highest temperature of one frame was used as the TS of the animal (FIG. 1d).
The Dreadd agonist CNO (clozapine N-oxide, Abcam, ab141704) was dissolved in physiological saline at a dose of 100 μg/mL, and the solution was frozen at −20° C. The CNO solution was thawed on site and then administered to each mouse intraperitoneally at a dose of 1 mg/kg. The adenosineAl receptor agonist CHA (N^6-cyclohexyl adenosine, Sigma-Aldrich, C9901) was dissolved in physiological saline at a concentration of 250 μg/mL, and the solution was administered intraperitoneally to each mouse at a dose of 2.5 mg/kg.

[2] = tested on: Q-neurons in the AVPe, MPA and Pe; assay: Fos immunostaining of brain sections of Q-hM3D mice after CNO IP; format: in vivo; conditions: 90 minutes after CNO IP
Method: Each mouse was deeply anesthetized with isoflurane, transcardially perfused with 10% sucrose in water, and then perfused with ice-cooled 4% paraformaldehyde (4% PFA) in a 0.1 M phosphate buffer having a pH of 7.4, and the brain was removed. After being left in the 4% PFA overnight at 4° C., the brain was fixed, incubated overnight at 4° C. in a 0.1 M phosphate buffered saline (PBS) having a pH of 7.4, in 30% sucrose, immersed in a Tissuue-Tek O.C.T. compound (Sakura) in a cryomold, and frozen at −80° C. until sectioned. With the use of a cryostat (CM1860, Leica), the brain was sliced into coronal sections in four equal series every 50 μm, collected in a 6-well plate filled with ice-cooled PBS, and washed three times with PBS at room temperature (RT). Unless otherwise specified, the following incubation process was carried out while gently shaking on an orbital shaker. […]
The primary antibodies used in this research were rabbit anti-cFos (1:4000, ABE457, Millipore), goat anti-mCherry (1:15000, AB0040-200, SICGEN), rat anti-GFP (1:5000, 04404-84, NACALAI TESQUE), mouse anti-TH (1:1000, sc-25269, Santa Cruz Biotechnology), mouse anti-orexin A (1:200, sc-80263, Santa Cruz Biotechnology), and rabbit anti-MCH (1:2000, M8440, SIGMA). […] Brain regions were determined using a mouse brain map from Paxinos and Franklin^36.

[3] = tested on: hM3Dq-mCherry expressing neurons; assay: Electrophysiological study of hypothalamus slices, current-clamp firing; format: cell-based; conditions: bath-application, CNO 1 μM, slices of Q-hM3D mice
Method: The mice were decapitated under deep anesthesia using isoflurane (Pfizer). The brains were extracted and cooled in an ice-cold cutting solution containing the following (mM): 125 mM choline chloride, 25 mM NaHCO3, 10 mM D(+)-glucose, 7 mM MgCl2, 2.5 mM KCl, 1.25 mM NaH2PO4, and 0.5 mM CaCl2) bubbled with O2 (95%) and CO2 (5%). Horizontal brain slices (thickness of 250 μm) including the hypothalamus were prepared using a vibratome (VT1200S, Leica) and were maintained at room temperature for one hour in artificial CSF (ACSF) containing the following (mM): 125 mM NaCl, 26 mM NaHCO3, 10 mM D(+)-glucose, 2.5 mM KCl, 2 mM CaCl2), and 1 mM MgSO4 bubbled with O2 (95%) and CO2 (5%). The electrodes (5 to 8 MΩ) were filled with an internal solution containing the following (mM): 125 mM K-gluconate, 10 mM HEPES, 10 mM phosphocreatine, 0.05 mM tolbutamide, 4 mM NaCl, 4 mM ATP, 2 mM MgCl2, 0.4 mM GTP, and 0.2 mM EGTA, with a pH of 7.3 and adjusted with KOH). Firing of hM3Dq-mCherry expressing neurons was recorded in a current-clamp mode at a temperature of 30° C. CNO (1 μM) was bath-applied, and the effect was examined. The membrane voltage and data acquisition were controlled using a combination of the MultiClamp 700B amplifier, the Digidata 1440A A/D converter and Clampex 10.3 software (Molecular Devices). […]

T1 sequence (P20309 whole entry Y149C/A239G): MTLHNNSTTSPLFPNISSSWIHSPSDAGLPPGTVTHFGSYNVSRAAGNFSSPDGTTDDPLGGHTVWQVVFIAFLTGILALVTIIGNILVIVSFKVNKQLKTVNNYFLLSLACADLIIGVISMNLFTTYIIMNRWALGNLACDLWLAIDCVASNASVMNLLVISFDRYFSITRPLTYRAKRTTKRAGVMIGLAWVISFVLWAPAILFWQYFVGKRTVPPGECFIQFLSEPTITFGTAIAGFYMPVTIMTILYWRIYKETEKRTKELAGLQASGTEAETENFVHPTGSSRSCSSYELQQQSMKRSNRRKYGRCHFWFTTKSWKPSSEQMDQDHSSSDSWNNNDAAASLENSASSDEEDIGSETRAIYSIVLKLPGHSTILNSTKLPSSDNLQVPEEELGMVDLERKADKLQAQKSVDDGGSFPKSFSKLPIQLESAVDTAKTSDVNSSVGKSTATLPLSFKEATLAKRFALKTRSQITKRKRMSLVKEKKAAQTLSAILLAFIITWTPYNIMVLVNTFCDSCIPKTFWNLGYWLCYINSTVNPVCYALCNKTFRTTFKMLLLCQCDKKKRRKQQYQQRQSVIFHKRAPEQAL

C[N+]1([O-])CCN(C2=Nc3cc(Cl)ccc3Nc3ccccc32)CC1 [CNO, clozapine N-oxide] was tested, and the “duration of TS reduction” value [1] was “approximately 12 hours”, the “onset of TS reduction after administration” value [1] was “approximately 5 minutes” and the “onset of sustained immobility after injection” value ([1]; intraperitoneal CNO) was “approximately 30 minutes”. The “surface body temperature (TS) effect” value ([1]; thermography camera) was “significantly sustained hypothermia”, the “in vivo excitation of neurons (mCherry and Fos double positive)” value [2] was “confirmed” and the “excitation of mCherry-positive neurons” value [3] was “strongly excited”.
